Results reported in US10485766B2, “Drug delivery system and method for the treatment of neuro-degenerative disease” (Aphios Corporation, priority 2011, dated 2019).

Legend:
[1] = biological target: T1, protein kinase C (PKC) isoform epsilon (Homo sapiens, UniProt Q02156); experiment: PKC epsilon activation (membrane translocation) in SH-SY5Y cells; format: cell-based; conditions: as nanospheres; SH-SY5Y neuroblastoma cell line
T1 construct: (measured by membrane translocation) in the SH-SY5Y neuroblastoma cell line; endogenous in cells; host or cells: SH-SY5Y neuroblastoma cell line
T1 sequence (Q02156 1-737): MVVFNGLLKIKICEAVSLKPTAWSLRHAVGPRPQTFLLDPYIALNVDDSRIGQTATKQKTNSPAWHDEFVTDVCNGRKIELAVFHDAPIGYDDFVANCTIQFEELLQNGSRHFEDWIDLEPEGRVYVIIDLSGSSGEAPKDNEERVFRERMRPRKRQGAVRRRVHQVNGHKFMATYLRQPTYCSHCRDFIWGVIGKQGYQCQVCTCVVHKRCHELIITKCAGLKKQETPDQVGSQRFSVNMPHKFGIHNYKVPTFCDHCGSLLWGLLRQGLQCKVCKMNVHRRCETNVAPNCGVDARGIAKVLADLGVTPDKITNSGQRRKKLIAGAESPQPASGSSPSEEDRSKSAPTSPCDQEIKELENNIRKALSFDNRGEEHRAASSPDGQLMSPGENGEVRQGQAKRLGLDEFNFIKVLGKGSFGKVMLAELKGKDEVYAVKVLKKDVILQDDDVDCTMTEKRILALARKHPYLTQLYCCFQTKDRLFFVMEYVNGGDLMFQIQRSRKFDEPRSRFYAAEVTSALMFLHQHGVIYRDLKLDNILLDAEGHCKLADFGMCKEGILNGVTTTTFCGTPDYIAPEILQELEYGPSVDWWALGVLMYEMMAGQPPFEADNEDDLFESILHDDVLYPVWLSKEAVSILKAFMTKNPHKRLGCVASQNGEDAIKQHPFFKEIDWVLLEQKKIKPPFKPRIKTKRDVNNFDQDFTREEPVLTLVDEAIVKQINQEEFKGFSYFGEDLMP
Description: (§1) These events are well-described cell and pharmacological events associated with prevention of beta-secretase mediated formation of beta-amyloid, the presumptive cause of dementia in human Alzheimer's disease and in the sweAPP/PS1 mouse model of Alzheimer's disease.

[2] = tested on: Mouse strain B6C3-Tg carrying mutant sweAPP and PS1 genes; experiment: Water maze studies; format: in vivo; conditions: 5 micrograms/mouse on alternative days orally in oil formulation; sweAPP/PS1 mice, 5-6 months of age; versus control animals
Description: Mouse strain B6C3-Tg carrying mutant Swedish Amyloid precursor protein (sweAPP) and PS1 (presenilin-1) genes associated with early onset Alzheimer's disease were subjected to water maze tests at 5-6 months of age.

[3] = biological target: T2, protein kinase C (PKC) isoform alpha (Homo sapiens, UniProt P17252); experiment: PKC alpha activation (membrane translocation) in SH-SY5Y cells; format: cell-based; conditions: as nanospheres; SH-SY5Y neuroblastoma cell line
T2 construct: (measured by membrane translocation) in the SH-SY5Y neuroblastoma cell line; endogenous in cells; host or cells: SH-SY5Y neuroblastoma cell line

[4] = tested on: alpha-secretase processing of amyloid precursor protein (APP); experiment: alpha-secretase processing of APP to s-APP alpha in SH-SY5Y neuroblastoma cell line; format: cell-based; conditions: as nanospheres
Description: as §1

[5] = Concentrations of Bryostatin in different solvents (normal phase HPLC); format: physicochemical; conditions: for Concentration: theoretical 2.5 mg/100 mL
Experimental: Isopropyl alcohol, Extra Virgin olive oil, sesame oil, and vegetable oil were all used as solvents.
Thirty microliters of the stock solution were placed in each of 4 clean, dry HPLC vials. The ethanol was allowed to evaporate, leaving 25 micrograms in the vial. Then, 1.0 mL of the solvent was placed in the vial and vortexed to ensure proper mixing. These samples were then injected on a normal phase HPLC system, with a gradient of 10%-70% isopropyl alcohol in hexane as the mobile phase (specifically developed for this experiment).
The concentration of each vial theoretically should be 2.5 mg/100 mL.
The reason for the higher concentrations than the standard (isopropyl alcohol) is due to the baseline. While attempting a baseline subtraction for each oil, there was negative absorbance so the blank IPA sample was subtracted from each sample's baseline. While this incorporates a little more area for integration, the amount of Bryostatin in the oil was quantifiable.

CCC/C=C/C=C/C(=O)O[C@H]1/C(=C/C(=O)OC)C[C@H]2C[C@H]([C@@H](C)O)OC(=O)C[C@H](O)C[C@@H]3C[C@H](OC(C)=O)C(C)(C)[C@](O)(C[C@@H]4C/C(=C/C(=O)OC)C[C@H](/C=C/C(C)(C)[C@]1(O)O2)O4)O3 [Bryostatin-1]
activation of PKC epsilon (membrane translocation) [1]: activate | protection against memory loss in water maze [2]: significant protection | activation of PKC alpha (membrane translocation) [3]: activate | alpha-secretase processing of APP to s-APP alpha [4]: induce alpha-secretase processing of amyloid precursor protein (APP) to s-APP alpha | Concentration ([5]; Solvent Extra Virgin Olive Oil): 2.9945 mg/100 mL | Concentration ([5]; Solvent Extra Virgin olive with mixed natural tocopherol antioxidants, lecithin and medium chain triglyceride emulsifiers): 2.4431 mg/100 mL | Concentration ([5]; Solvent Isopropyl Alcohol (standard)): 2.6035 mg/100 mL | Concentration ([5]; Solvent Vegetable Oil): 2.5475 mg/100 mL | solubility in oils ([5]; different types of oil): soluble
